# Source: US7883889B2, “Antigen presenting cells, method for their preparation and their use for cancer vaccines” (priority 2001, dated 2011)
# How the values were obtained:
# [1] = system: B-EBV+ lymphoblastoid cell lines; test: RT-PCR analysis of CTA expressed by ADHAPI-Cells/B-EBV and control B-EBV cells; type: cell-based, human; conditions: 5-AZA-CdR: four pulses of 1 μM every 12 h, then 48 h culture (= ADHAPI-Cells/B-EBV)
# Protocol: B-EBV+ lymphoblastoid cell lines (7.5×10^5 cells/ml) were cultured in RPMI 1640 medium supplemented with 10% heat-inactivated foetal calf serum (or 10% heat-inactivated human AB serum) and 2 mM L-glutamine at 37° C. in a 5% CO2 humidified atmosphere, and pulsed four times with 1 μM 5-aza-2′-deoxycytidine (5-AZA-CdR) every 12 h; then, half of the culture medium was replaced with fresh medium and cultures were allowed to proceed for additional 48 h. Then cells were utilized for experimental procedures and/or frozen under viable conditions. Control cells (B-EBV cells) were cultured under similar experimental conditions but without pulses of 5-AZA-CdR.
# Experimental conditions and primers utilized to assess CTA expression on investigated cells were as follows: […]
# [2] = system: PWM-activated B-Lymphocytes; test: RT-PCR analysis of CTA expressed by ADHAPI-Cells/PWM-B and control PWM-B cells; type: cell-based, human; conditions: 5-AZA-CdR: four pulses of 1 μM every 12 h, then 48 h culture (= ADHAPI-Cells/PWM-B)
# Protocol: (§1) Experimental conditions and primers utilized to assess CTA expression on investigated cells were as follows:
# Purified B-Lymphocytes (1.5×10^6 cells/ml) were added with PWM (3 μg/ml) and cultured for 48 h at 37° C. in a 5% CO2 humidified atmosphere in Basal Iscove's medium supplemented with 10% heat-inactivated human AB serum, 2 mM L-glutamine, 100 U/ml penicillin, 100 μg/ml streptomycin sulphate.
# (§2) PWM-activated B-Lymphocytes were pulsed four times with 1 μM 5-aza-2′-deoxycytidine (5-AZA-CdR) every 12 h; then, half of the culture medium was replaced with fresh medium and cultures were allowed to proceed for additional 48 h. Then cells were utilized for experimental procedures and/or frozen under viable conditions. Control cells (PWM-B) were cultured under similar experimental conditions but without pulses of 5-AZA-CdR.
# [3] = system: NIH3T3-CD40L-activated PBMC; test: RT-PCR analysis of CTA expressed by ADHAPI-Cells/CD40L-B and control CD40L-B cells; type: cell-based, human; conditions: 5-AZA-CdR: four pulses of 1 μM every 12 h, restimulation with NIH3T3-CD40L, then 48 h (= ADHAPI-Cells/CD40L-B)
# Protocol: as §1
# PBMC (2×10^6 cells/ml) were co-cultured with semiconfluent, x-ray treated (75 Gy) NIH3T3-CD40L at 37° C. in a 5% CO2 humidified atmosphere, in Basal Iscove's medium supplemented with 10% heat-inactivated human AB serum, 2 mM L-glutamine, 2 ng/ml recombinant human (rh) interleukin 4 (rhIL-4), 50 μg/ml human transferrin, 5 μg/ml rh insulin, 5.5×10^−7 M cyclosporin A (CsA), 100 U/ml penicillin, and 100 μg/ml streptomycin sulphate (complete medium). After six days of incubation, PBMC were collected, washed twice with HBSS, resuspended at 1×10^6 cells/ml in complete medium and co-cultured for additional 3 days at 37° C. in a 5% CO2 humidified atmosphere with NIH3T3-CD40L freshly prepared as described above. This procedure was repeated every 2-3 days to a maximum culture time of 16-18 days.
# After 16-18 days of culture, activated PBMC were harvested and restimulated with NIH3T3-CD40L as described above; after an O/N incubation at 37° C. in a 5% CO2 humidified atmosphere, cultures were pulsed four times with 1 μM 5-aza-2′-deoxycytidine (5-AZA-CdR) every 12 h; then, cells were harvested and restimulated with NIH3T3-CD40L as described above and cultures were allowed to proceed for additional 48 h. Then cells were utilized for experimental procedures and/or frozen under viable conditions. Control cells (CD40L-B cells) were cultured under similar experimental conditions but without pulses of 5-AZA-CdR.
# [4] = system: PWM-activated PBMC; test: RT-PCR analysis of CTA expressed by ADHAPI-Cells/PWM-PBMC and control PWM-PBMC cells; type: cell-based, human; conditions: 5-AZA-CdR: four pulses of 1 μM every 12 h, then 48 h culture (= ADHAPI-Cells/PWM-PBMC)
# Protocol: as §1
# PBMC (1.5×10^6 cells/ml) were added with PWM (3 μg/ml) and cultured for 48 h at 37° C. in a 5% CO2 humidified atmosphere in Basal Iscove's medium supplemented with 10% heat-inactivated human AB serum, 2 mM L-glutamine, 100 U/ml penicillin, 100 μg/ml streptomycin sulphate.
# as §2, with “PBMC” for “B-Lymphocytes”, “(PWM-PBMC)” for “(PWM-B)”
# [5] = system: PHA-activated PBMC; test: RT-PCR analysis of CTA expressed by ADHAPI-Cells/PHA-PBMC and control PHA-PBMC; type: cell-based, human; conditions: 5-AZA-CdR: four pulses of 1 μM every 12 h, then 48 h culture (= ADHAPI-Cells/PHA-PBMC)
# Protocol: as §1
# PBMC (1.5×10^6 cells/ml) were added with PHA-M (10 μg/ml) and 100 UI/ml rhIL-2, and cultured for 48 h at 37° C. in a 5% CO2 humidified atmosphere in RPMI 1640 medium supplemented with 10% heat-inactivated foetal calf serum (or in Basal Iscove's medium supplemented with 10% heat-inactivated human AB serum), 2 mM L-glutamine, 100 U/ml penicillin, 100 μg/ml streptomycin sulphate (complete medium).
# (§3) PHA-activated PBMC were pulsed four times with 1 μM 5-aza-2′-deoxycytidine (5-AZA-CdR) every 12 h; then, half of the culture medium was replaced with fresh complete medium without PHA-M and cultures were allowed to proceed for additional 48 h. Then cells were utilized for experimental procedures and/or frozen under viable conditions. Control cells (PHA-PBMC) were cultured under similar experimental conditions but without pulses of 5-AZA-CdR.
# [6] = system: PHA+PWM-activated PBMC; test: RT-PCR analysis of CTA expressed by ADHAPI-Cells/PHA+PWM-PBMC and control PHA+PWM-PBMC; type: cell-based, human; conditions: 5-AZA-CdR: four pulses of 1 μM every 12 h, then 48 h culture (= ADHAPI-Cells/PHA+PWM-PBMC)
# Protocol: as §1
# PBMC (1.5×10^6 cells/ml) were added with PHA-M (10 μg/ml), PWM (3 μg/ml), 100 UI/ml rhIL-2 and cultured for 48 h at 37° C. in a 5% CO2 humidified atmosphere in Basal Iscove's medium supplemented with 10% heat-inactivated human AB serum (or with 10% heat-inactivated autologous serum), 2 mM L-glutamine, 100 U/ml penicillin, 100 μg/ml streptomycin sulphate (complete medium).
# as §3, with “PHA+PWM-activated” for “PHA-activated”, “PHA or PWM” for “PHA-M”, “(PHA+PWM-PBMC)” for “(PHA-PBMC)”
# [7] = system: normal and malignant lymphoid cells; conditions: Shichijo S. et al Jpn. J. Cancer Res. 87, 751-756, 1996; cited from earlier work
compound,measurement,setting,value
"Nc1ncn([C@H]2C[C@H](O)[C@@H](CO)O2)c(=O)n1 [5-AZA-CdR, 5-aza-2′-deoxycytidine]",GAGE-1-6 expression (RT-PCR),[1],4/4
same,MAGE-1 expression (RT-PCR),[1],4/4
same,MAGE-3 expression (RT-PCR),[1],4/4
same,NY-ESO-1 expression (RT-PCR),[1],4/4
same,SSX-2 expression (RT-PCR),[1],4/4
same,GAGE-1-6 expression (RT-PCR),[2],4/4
same,MAGE-1 expression (RT-PCR),[2],4/4
same,MAGE-2 expression (RT-PCR),[2],4/4
same,MAGE-3 expression (RT-PCR),[2],4/4
same,MAGE-4 expression (RT-PCR),[2],4/4
same,NY-ESO-1 expression (RT-PCR),[2],4/4
same,SSX-2 expression (RT-PCR),[2],4/4
same,GAGE-1-6 expression (RT-PCR),[3],14/14
same,MAGE-1 expression (RT-PCR),[3],10/10
same,MAGE-2 expression (RT-PCR),[3],9/10
same,MAGE-3 expression (RT-PCR),[3],10/11
same,MAGE-4 expression (RT-PCR),[3],11/11
same,NY-ESO-1 expression (RT-PCR),[3],14/14
same,SSX-2 expression (RT-PCR),[3],13/14
same,GAGE-1-6 expression (RT-PCR),[4],3/4
same,MAGE-1 expression (RT-PCR),[4],4/4
same,MAGE-2 expression (RT-PCR),[4],3/4
same,MAGE-3 expression (RT-PCR),[4],4/4
same,MAGE-4 expression (RT-PCR),[4],3/4
same,NY-ESO-1 expression (RT-PCR),[4],4/4
same,SSX-2 expression (RT-PCR),[4],3/4
same,GAGE-1-6 expression (RT-PCR),[5],4/4
same,MAGE-1 expression (RT-PCR),[5],12/12
same,MAGE-2 expression (RT-PCR),[5],3/3
same,MAGE-3 expression (RT-PCR),[5],12/12
same,MAGE-4 expression (RT-PCR),[5],4/4
same,NY-ESO-1 expression (RT-PCR),[5],6/6
same,SSX-2 expression (RT-PCR),[5],6/6
same,GAGE-1-6 expression (RT-PCR),[6],7/7
same,MAGE-1 expression (RT-PCR),[6],7/7
same,MAGE-2 expression (RT-PCR),[6],7/7
same,MAGE-3 expression (RT-PCR),[6],7/7
same,MAGE-4 expression (RT-PCR),[6],7/7
same,NY-ESO-1 expression (RT-PCR),[6],7/7
same,SSX-2 expression (RT-PCR),[6],7/7
same,"induction of MAGE 1, 2, 3 and 6",[7],induction of investigated CTA in selected samples tested
